Data published in ChEMBL document CHEMBL3885881, “DrugMatrix”.

Organism: Rattus norvegicus
Assay: DrugMatrix - Regimen: Daily Repeat
Assay type: toxicity, organism-based, Sprague-Dawley
Design: regimen Daily Repeat, gender Male, age 6-8 weeks
Conditions: in vivo, sc, route subcutaneous, […]; for ABSOLUTE BASOPHIL / ABSOLUTE EOSINOPHIL / ABSOLUTE LYMPHOCYTE / ABSOLUTE MONOCYTE / ABSOLUTE SEGMENTED NEUTROPHIL / BASOPHIL / EOSINOPHIL / ERYTHROCYTE COUNT / HEMATOCRIT / HEMOGLOBIN / LEUKOCYTE COUNT / LYMPHOCYTE / MEAN CORPUSCULAR HEMOGLOBIN / MEAN CORPUSCULAR HEMOGLOBIN CONCENTRATION / MEAN CORPUSCULAR VOLUME / MONOCYTE / NEUTROPHIL / NUCLEATED RED BLOOD CELLS / PLATELET COUNT: tissue Blood; for ALANINE AMINOTRANSFERASE / ALBUMIN / ALKALINE PHOSPHATASE / ASPARTATE AMINOTRANSFERASE / BLOOD UREA NITROGEN / CARBON DIOXIDE / CHLORIDE / CHOLESTEROL / CREATINE PHOSPHOKINASE / CREATININE / GLUCOSE / LACTATE DEHYDROGENASE / LIPASE / PHOSPHORUS / POTASSIUM / SODIUM / TOTAL BILIRUBIN / TOTAL PROTEIN / URIC ACID: tissue Plasma
[1] = 0 mg/kg, 72 h, dose level Control, time 3 day
[2] = 0 mg/kg, 120 h, dose level Control, time 5 day
[3] = 14 mg/kg, 72 h, dose level Low, time 3 day

## CCN(CC)CCOCCC1=CCC2CC1C2(C)C (centres undefined) [MYRTECAINE]
[1]
  ABSOLUTE BASOPHIL: 0 CELLS/uL
  ABSOLUTE EOSINOPHIL: 0 CELLS/uL
  ABSOLUTE LYMPHOCYTE: 10887 CELLS/uL
  ABSOLUTE MONOCYTE: 56 CELLS/uL
  ABSOLUTE SEGMENTED NEUTROPHIL: 1057 CELLS/uL
  BASOPHIL: 0%
  EOSINOPHIL: 0%
  ERYTHROCYTE COUNT: 5.31 x10E6/uL
  HEMATOCRIT: 33.78%
  HEMOGLOBIN: 13.4 G/DL
  LEUKOCYTE COUNT: 12 x10E3/uL
  LYMPHOCYTE: 91.17%
  MEAN CORPUSCULAR HEMOGLOBIN: 25.25 pg
  MEAN CORPUSCULAR HEMOGLOBIN CONCENTRATION: 39.65 G/DL
  MEAN CORPUSCULAR VOLUME: 63.65 fL
  MONOCYTE: 0.5%
  NEUTROPHIL: 8.33%
  NUCLEATED RED BLOOD CELLS: 0 /100WBC
  PLATELET COUNT: 1142 x10E3/uL
  ALANINE AMINOTRANSFERASE: 57.17 u/L
  ALBUMIN: 4.28 G/DL
  ALKALINE PHOSPHATASE: 425.83 u/L
  ASPARTATE AMINOTRANSFERASE: 93.83 u/L
  BLOOD UREA NITROGEN: 14.17 mg/dL
  CARBON DIOXIDE: 33.5 mmol/L
  CHLORIDE: 100 MEQ/L
  CHOLESTEROL: 70.33 mg/dL
  CREATINE PHOSPHOKINASE: 438.67 u/L
  CREATININE: 0.19 mg/dL
  GLUCOSE: 138.5 mg/dL
  LACTATE DEHYDROGENASE: 190.17 u/L
  LIPASE: 9.83 u/L
  PHOSPHORUS: 11.05 mg/dL
  POTASSIUM: 6.59 MEQ/L
  SODIUM: 143.58 MEQ/L
  TOTAL BILIRUBIN: 0.22 mg/dL
  TOTAL PROTEIN: 6.15 G/DL
  URIC ACID: 1.3 mg/dL
[2]
  ABSOLUTE BASOPHIL: 0 CELLS/uL
  ABSOLUTE EOSINOPHIL: 91.17 CELLS/uL
  ABSOLUTE LYMPHOCYTE: 11847.67 CELLS/uL
  ABSOLUTE MONOCYTE: 172.83 CELLS/uL
  ABSOLUTE SEGMENTED NEUTROPHIL: 1105 CELLS/uL
  BASOPHIL: 0%
  EOSINOPHIL: 0.67%
  ERYTHROCYTE COUNT: 5.35 x10E6/uL
  HEMATOCRIT: 33.65%
  HEMOGLOBIN: 13.42 G/DL
  LEUKOCYTE COUNT: 13.22 x10E3/uL
  LYMPHOCYTE: 89.83%
  MEAN CORPUSCULAR HEMOGLOBIN: 25.12 pg
  MEAN CORPUSCULAR HEMOGLOBIN CONCENTRATION: 39.9 G/DL
  MEAN CORPUSCULAR VOLUME: 63 fL
  MONOCYTE: 1.33%
  NEUTROPHIL: 8.17%
  NUCLEATED RED BLOOD CELLS: 0 /100WBC
  PLATELET COUNT: 1347.83 x10E3/uL
  ALANINE AMINOTRANSFERASE: 50 u/L
  ALBUMIN: 4.1 G/DL
  ALKALINE PHOSPHATASE: 329.17 u/L
  ASPARTATE AMINOTRANSFERASE: 77.17 u/L
  BLOOD UREA NITROGEN: 16.83 mg/dL
  CARBON DIOXIDE: 34.83 mmol/L
  CHLORIDE: 99.83 MEQ/L
  CHOLESTEROL: 75.67 mg/dL
  CREATINE PHOSPHOKINASE: 295.83 u/L
  CREATININE: 0.18 mg/dL
  GLUCOSE: 156.33 mg/dL
  LACTATE DEHYDROGENASE: 166.83 u/L
  LIPASE: 9.83 u/L
  PHOSPHORUS: 12.18 mg/dL
  POTASSIUM: 6.69 MEQ/L
  SODIUM: 143.97 MEQ/L
  TOTAL BILIRUBIN: 0.22 mg/dL
  TOTAL PROTEIN: 6.05 G/DL
  URIC ACID: 1.6 mg/dL
[3]
  ABSOLUTE BASOPHIL: 0 CELLS/uL
  ABSOLUTE EOSINOPHIL: 0 CELLS/uL
  ABSOLUTE LYMPHOCYTE: 10822.33 CELLS/uL
  ABSOLUTE MONOCYTE: 0 CELLS/uL
  ABSOLUTE SEGMENTED NEUTROPHIL: 1344.33 CELLS/uL
  BASOPHIL: 0%
  EOSINOPHIL: 0%
  ERYTHROCYTE COUNT: 5.32 x10E6/uL
  HEMATOCRIT: 33.73%
  HEMOGLOBIN: 13.37 G/DL
  LEUKOCYTE COUNT: 12.17 x10E3/uL
  LYMPHOCYTE: 89%
  MEAN CORPUSCULAR HEMOGLOBIN: 25.13 pg
  MEAN CORPUSCULAR HEMOGLOBIN CONCENTRATION: 39.6 G/DL
  MEAN CORPUSCULAR VOLUME: 63.4 fL
  MONOCYTE: 0%
  NEUTROPHIL: 11%
  NUCLEATED RED BLOOD CELLS: 0 /100WBC
  PLATELET COUNT: 1197.33 x10E3/uL
  ALANINE AMINOTRANSFERASE: 47.67 u/L
  ALBUMIN: 4.13 G/DL
  ALKALINE PHOSPHATASE: 420 u/L
  ASPARTATE AMINOTRANSFERASE: 80.67 u/L
  BLOOD UREA NITROGEN: 13.67 mg/dL
  CARBON DIOXIDE: 25.67 mmol/L
  CHLORIDE: 103.67 MEQ/L
  CHOLESTEROL: 75.67 mg/dL
  CREATINE PHOSPHOKINASE: 200.33 u/L
  CREATININE: 0.16 mg/dL
  GLUCOSE: 152.33 mg/dL
  LACTATE DEHYDROGENASE: 214.67 u/L
  LIPASE: 9 u/L
  PHOSPHORUS: 14.03 mg/dL
  POTASSIUM: 6.82 MEQ/L
  SODIUM: 146.53 MEQ/L
  TOTAL BILIRUBIN: 0.17 mg/dL
  TOTAL PROTEIN: 5.97 G/DL
  URIC ACID: 1.5 mg/dL
